Results reported in patent US8729047B2, “Compositions for inhibiting redox-sensitive GTPases” (Board of Regents, The University of Texas System, priority 2010, dated 2014).

Tests used:
[1] = tested on: HME-RhoC cells; assay: Apoptosis / cell population of cells treated with thiopurines; type: cell-based, human; settings: not shown
[2] = biological target: T1, RhoC (Homo sapiens, UniProt P08134); assay: Redox agent-mediated GDP dissociation (FIG. 16B); type: biochemical; parameters: made in house; host or cells: E. coli; settings: [3H]GDP-loaded RhoC 1 μM, redox agent ~3 μM, free GDP 10 μM, anaerobic
T1 sequence (P08134 whole entry): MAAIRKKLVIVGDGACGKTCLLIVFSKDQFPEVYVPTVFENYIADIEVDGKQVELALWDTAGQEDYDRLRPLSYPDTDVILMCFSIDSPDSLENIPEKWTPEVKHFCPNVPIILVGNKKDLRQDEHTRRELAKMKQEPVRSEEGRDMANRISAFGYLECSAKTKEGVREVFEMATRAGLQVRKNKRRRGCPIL
Experimental: (§1) FIG. 16. Kinetic properties of RhoC with 6-TGDP in the presence or absence of a redox agent. All kinetic analyses are described elsewhere herein. (A) ^appKD values of Rac1, RhoA, RhoC, and RhoC C20S for 6-TGDP were estimated to be 7.9, 11.6, 11.8, and 11.2 μM, respectively. ^trueKD values of Rac1, RhoA, […] for 6-TGDP were then calculated to be 5.1, 10.8, 11.1, and 10.5 μM, respectively, by using a compensation equation, ^trueKD for 6-TGDP=^appKD for 6-TGDP/(1+[[^3H]GDP]/^trueKD for GDP) (Heo, J., and Hong, I. (2010) Biochemistry 49, 3965-3976), in conjunction with the values given. […] The GDP dissociation rates from RhoC C20S by NO, .NO2, and N2O3 were estimated to be 0.02×10^−3, 0.05×10^−3, and 0.04×10^−3 s^−1, respectively. […] (D) ^appKD values of RhoC for [^3H]GDP in the presence or absence of DTT were estimated to be 22.4 μM and […], respectively. ^appKD values of C20S RhoC for [^3H]GDP in the presence or absence of DTT were determined to be 24.8 μM and 25.2 μM, respectively. The regression values associated with these fits were >0.8595. All data points associated with vertical standard error bars shown in this figure are the mean values of triplicate measurements.
(§2) Transition metal-free assay buffer and vials as described in a previous study (Heo et al. Biochemistry 49, 3965-3976 (2010)) were used for all kinetic assays. The kinetic assay buffer contains the highest grade of 50 mM NaCl, 10 mM MgCl2, 1 mM EDTA, and 0.1 mM DTPA in 50 mM TrisHCl (pH 7.4). Before performance of any of the assays, all protein samples also were dialyzed with a metal-free buffer under anaerobic conditions. As with RhoA and Rac1 (Heo et al. J. Biol. Chem. 280, 31003-31010 (2005)), C20S RhoC were expressed in E. coli and purified using anionic and size exclusion columns.
(§3) (b) The effect of redox agents such as NO, .NO2, and N2O3 on the binding interaction between RhoC proteins and GDP or 6-TGDP was examined under N2-filled serum-stoppered anaerobic experimental conditions (O2<3 ppm). These anaerobic experimental conditions were necessary to block the reaction of NO or .NO2 with O2 to produce higher oxides. The contents of NO and .NO2, respectively, in the sealed assay vials were determined by using a hemoglobin assay and NO2^−/NO3^− Assay Kit-C II (Dojindo) under anaerobic conditions (Heo et al. J. Biol. Chem. 280, 31003-31010 (2005); Heo et al. Biochemistry 43, 2314-2322 (2004)). N2O3 was generated by mixing NO and .NO2 1:1 stoichiometrically. […] The fraction of the redox agent-mediated release of the bound [^3H]GDP per Rho protein over time was determined as noted above, and the result was plotted against time. The rates of RhoC GDP dissociation in the presence of redox agents were determined by using Prism software to fit the result to a one-phase exponential decay.

[3] = biological target: T2, RhoC C20S (Homo sapiens, UniProt P08134, C20S); assay: Redox agent-mediated GDP dissociation (FIG. 16B); type: biochemical; parameters: made in house; host or cells: E. coli; settings: [3H]GDP-loaded protein 1 μM, redox agent ~3 μM, free GDP 10 μM, anaerobic
T2 sequence (P08134 whole entry C20S): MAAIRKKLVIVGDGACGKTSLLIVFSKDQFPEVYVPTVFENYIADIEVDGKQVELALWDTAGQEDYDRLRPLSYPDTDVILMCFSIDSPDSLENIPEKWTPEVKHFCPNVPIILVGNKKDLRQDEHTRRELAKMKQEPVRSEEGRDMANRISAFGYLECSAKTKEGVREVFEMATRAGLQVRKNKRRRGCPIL
Experimental: as §1, §2, §3

[4] = biological target: T1, RhoC; assay: Redox agent-mediated 6-TGDP dissociation (FIG. 16C); type: biochemical; parameters: made in house; host or cells: E. coli; settings: 6-TGDP-loaded RhoC treated with redox agent, free [3H]GDP 10 μM
Experimental: as §1, §2
(§4) (c) To test the Rho 6-TGDP-binding interaction in the presence of redox agents, the 6-TGDP-loaded RhoC protein was treated with redox agents in the presence of free […] (10 μM). An association of RhoC protein with [^3H]GDP to produce a RhoC-[^3H]GDP complex will occur proportionally after RhoC releases 6-TGDP through the action of redox agents. Therefore, the fraction of the redox agent-mediated release of the bound 6-TGDP per Rho protein over time can be deduced by determination of the RhoC-bound [^3H]GDP, where the quantity of RhoC-bound 6-TGDP equals 1 minus the determined fraction of the RhoC-bound [^3H]GDP as described in Section (b). The estimated data associated with the quantity of RhoC-bound 6-TGDP then was fitted to a one-phase exponential decay; Prism software was used to derive the rate of 6-TGDP dissociation from RhoC.

[5] = biological target: T2, RhoC C20S; assay: as above; type: biochemical; parameters: made in house; host or cells: E. coli; settings: 6-TGDP-loaded RhoC C20S treated with redox agent, free [3H]GDP 10 μM
Experimental: as §1, §2, §4

[6] = tested on: HME-RhoC cells; assay: Matrigel invasion (cell motility) assay; type: cell-based, human; settings: NO donor alone 10 μM, three days continuous; FIG. 14A
Experimental: FIG. 5. Determination of cell invasiveness in the presence and absence of 6-thiopurine and/or a redox agent. The top chamber of a Transwell filter (6.5 mm with 8 μm pores, Costar; Corning, N.Y.) was coated with a 10 μL aliquot of 10 mg/mL Matrigel (BD Biosciences, Bedford Mass.), and the lower chamber of the Transwell was filled with either serum-free or serum-containing media. Sample cells (e.g., 6-TG-resistant HME-RhoC cells) were prepared to resuspend cells in a serum-free medium with 0.1% BSA at a concentration of 4×10^5 cells/mL. At this point, neither 6-thiopurine nor GSNO were added to the cells. The sample cells (0.5 mL) were added to the top chamber of a Transwell filter and were incubated for 24 h at 37° C. in a 10% CO2 incubator. The Transwell filters were fixed with methanol, stained with H&E, and cells in the serum-containing samples were counted. The number of cells that had invaded the serum-free medium-containing lower chambers was used as a control background. Results are given as percent invasion over that seen in HME-RhoC cells (100%) and represent mean and standard error values from triplicate measurements.
FIG. 11. Determination of cell invasiveness in the presence and absence of […] and/or a redox agent. […] The number of cells that had invaded the serum-free medium-containing lower chambers was used as a control background. Results are given as percent invasion over that seen in HME-RhoC cells (100%) and represent mean and standard error values from triplicate measurements.
(§5) FIG. 14. Determination of cell invasiveness in the presence and absence of thiopurines and/or redox agents. […] Western blot analysis representing the total expression of RhoC in these cells also is shown. (B) Experimental procedures for the determination of the time-dependent motility of cells using the QCM Cell Invasion Assay kit in the presence and absence of 6-TG and DETA/NO are described elsewhere herein.
(§6) The top chamber of a Transwell filter (6.5 mm with 8 μm pores, Costar; Corning, N.Y.) was coated with a 10 μL aliquot of 10 mg/mL Matrigel, and the lower chamber of the Transwell was filled with either serum-free or serum-containing media. Sample cells were prepared to resuspend cells in a serum-free medium with 0.1% BSA at a concentration of 4×10^5 cells/mL. […] The Transwell filters were fixed with methanol, stained with haematoxylin and eosin, and cells in the serum-containing samples were counted. The number of cells that had invaded the serum-free, medium-containing lower chambers was used as a control background.

[7] = tested on: HME-C20S RhoC cells; assay: Matrigel invasion (cell motility) assay; type: cell-based, human; settings: NO donor alone 10 μM, three days continuous; FIG. 14A
Source text: as §5, §6

[8] = tested on: SUM149 cells; assay: Matrigel invasion (cell motility) assay; type: cell-based, human; settings: NO donor alone 10 μM, three days continuous; FIG. 14A
Source text: as §5, §6

[9] = tested on: HME-C20S RhoC cells; assay: MTT cell viability and caspase-3/8 assays; type: cell-based, human; settings: NO donor alone; FIG. 25
Source text: (§7) FIG. 25. […] (B) Caspase-3/8 assay: the apoptotic activity of sample cells treated with the apoptotic inducer was set to be 100%, and other results were then expressed as normalized values against the mean value associated with the treatment with the apoptotic inducer. For both (A) and (B), all values represent the mean values and standard error values from triplicate measurements.

[10] = tested on: HME-RhoC cells; assay: MTT cell viability and caspase-3/8 assays; type: cell-based, human; settings: NO donor alone; FIG. 25
Source text: as §7

[11] = tested on: SUM149 cells; assay: MTT cell viability and caspase-3/8 assays; type: cell-based, human; settings: NO donor alone; FIG. 25
Source text: as §7

[12] = biological target: T3, RhoA (Rattus norvegicus, UniProt P61589); assay: RhoA expression (Western) and RhoA G-LISA activity in A7r5 cells; type: cell-based
T3 construct: endogenous in cells; host or cells: A7r5 cells (rat aortic vascular smooth muscle)
T3 sequence (P61589 whole entry): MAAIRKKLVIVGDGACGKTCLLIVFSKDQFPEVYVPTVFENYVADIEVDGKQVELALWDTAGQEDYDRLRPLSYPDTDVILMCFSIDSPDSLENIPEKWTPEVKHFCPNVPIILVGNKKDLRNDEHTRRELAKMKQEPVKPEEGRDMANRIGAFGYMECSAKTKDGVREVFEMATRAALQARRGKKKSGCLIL
Experimental: (§8) FIG. 20. Determination of RhoA activity and MLC phosphorylation. […] Cell lysates in a buffer containing 1% NP-40, 10 mM EDTA, and 20 mM TrisHCl (pH 7.4) were centrifuged (50,000×g, 20 min) to remove solid matter. (A) The soluble cell extract was then used to perform Western blot analyses for RhoA and the MLC. This cell extract also was used for the co-IP-based ESI-MS analysis (FIG. 6). (B) A RhoA activity assay was colorimetrically determined using cell extract; the assay was performed with the RhoA G-LISA Activation Assay Kit (Cat. No. BK124) (Denver, Colo.). To examine the level of phosphorylation of the MLC, cells were cultured with ˜5 μCi of ^32P in 1 mL of phosphate-free DMEM. The collected cell extract was nutated with resin coupled with a macrophage myosin II antibody at 4° C. for 5 h. Resin was collected by centrifugation, and proteins bound to the resin were washed and eluted with a buffer (80° C.) containing […], 5 mM DTT, and 10 mM TrisHCl (pH 6.8). The immunoprecipitates were then analyzed by SDS-PAGE and autoradiographed. The values of RhoA activity and the MLC phosphorylation determined from untreated cells were set at 100%. […] The data represented in the figure represent the mean values of triplicate measurements, and the vertical error bar indicates standard errors.

[13] = tested on: MLC; assay: MLC phosphorylation in A7r5 cells; type: cell-based, rat; settings: only NO donor, DETA/NO ≅10 μM, FIG. 20B
Experimental: as §8

[14] = biological target: T2, RhoC C20S; assay: RhoC expression (Western) and RhoC activity assay in cells; type: cell-based; parameters: expressed in transfected cells; host or cells: human mammary epithelial (HME) cells; settings: HME-C20S RhoC cells, NO donor alone, three days
Experimental: as §5
(§9) Cells were lysed in an extraction buffer containing 50 mM NaCl, 5 mM MgCl2, 1 mM ethylenediaminetetraacetic acid (EDTA), 0.1 mM diethylenetriaminepentaacetic acid (DTPA), and 0.1% NP40 in 150 mM TrisHCl (pH 8.0). The content of […] RhoC in cells then was determined by using Western analysis that relies on a monoclonal anti-RhoC antibody (Biocompare, South San Francisco, Calif.). To determine RhoC activity, the colorimetric RhoA activation assay Biochem Kit (Cytoskeleton, Denver, Colo.) was used essentially as described in the previous study (Hall et al. Neoplasia 10, 797-803 (2008)) except that the RhoC specific antibody (vide supra), instead of the RhoA antibody included in the assay kit, was used for this analysis.

[15] = biological target: T1, RhoC; assay: as above; type: cell-based; parameters: endogenous in cells; host or cells: SUM149, SUM102, SW480, HCCLM3 (endogenous); HME-RhoC (transfected with wild type RhoC); settings: SUM149 and HME-RhoC cells, NO donor alone, three days
Experimental: as §5, §9

SMILES: Sc1ncnc2nc[nH]c12 [6-MP, 6-mercaptopurine]
- cell population with other 6-TG analogs [1]: decrease in the cell population

SMILES: [O]N=O [.NO2, nitrogen dioxide]
- rate of GDP dissociation [2]: 0.00604 s⁻¹
- rate of GDP dissociation [3]: 5e-05 s⁻¹
- rate of 6-TGDP dissociation [4]: 0.00265 s⁻¹
- rate of 6-TGDP dissociation [5]: 0.00627 s⁻¹

SMILES: Cn1cnc([N+](=O)[O-])c1Sc1ncnc2nc[nH]c12 [AZA, azathioprine]
- cell population with other 6-TG analogs [1]: decrease in the cell population

SMILES: NCCN(CCN)/[N+]([O-])=N/O [DETA/NO, diethylenetriamine nitric oxide adduct]
- effect on invasive cell motility [6]: minimal
- effect on invasive cell motility [7]: minimal
- effect on invasive cell motility [8]: minimal
- cell viability and caspase activity [9]: minimally changed
- cell viability and caspase activity [10]: minimally changed
- cell viability and caspase activity [11]: minimally changed
- concentration of NO donor alone required for RhoA inactivation ([12]; not shown): > 50 µM
- RhoA inactivation ([12]; only NO donor, DETA/NO ≅10 μM, FIG. 20B): minimal fraction of RhoA was inactivated
- MLC dephosphorylation [13]: sizable fraction of the MLC was dephosphorylated
- effect on RhoC activity [14]: minimal
- effect on RhoC activity [15]: minimal

SMILES: N[C@@H](CCC(=O)N[C@@H](CSN=O)C(=O)NCC(=O)O)C(=O)O [GSNO, S-Nitrosoglutathione]
- effect on invasive cell motility [6]: minimal
- effect on invasive cell motility [7]: minimal
- effect on invasive cell motility [8]: minimal
- effect on RhoC activity [14]: minimal
- effect on RhoC activity [15]: minimal

SMILES: [N]=O [NO, nitric oxide]
- rate of GDP dissociation [2]: 0.00019 s⁻¹
- rate of GDP dissociation [3]: 2e-05 s⁻¹
- rate of 6-TGDP dissociation [4]: 8e-05 s⁻¹
- rate of 6-TGDP dissociation [5]: 4e-05 s⁻¹
